# In ChEMBL document CHEMBL1201862, “PubChem BioAssay data set” (2004):
# Calls of active or inactive are those of the source. Rule as the data show it, for most assays here: actives have a measured EC50 and inactives only a lower limit.
# Experiments:
# Cytochrome P450 1A2 = molecular target: T1, Cytochrome P450 1A2 (Homo sapiens, UniProt P05177);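 also: PubChem cytochrome P450 panel assay, CYP1A2 panel member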
# T1 sequence (P05177 whole entry): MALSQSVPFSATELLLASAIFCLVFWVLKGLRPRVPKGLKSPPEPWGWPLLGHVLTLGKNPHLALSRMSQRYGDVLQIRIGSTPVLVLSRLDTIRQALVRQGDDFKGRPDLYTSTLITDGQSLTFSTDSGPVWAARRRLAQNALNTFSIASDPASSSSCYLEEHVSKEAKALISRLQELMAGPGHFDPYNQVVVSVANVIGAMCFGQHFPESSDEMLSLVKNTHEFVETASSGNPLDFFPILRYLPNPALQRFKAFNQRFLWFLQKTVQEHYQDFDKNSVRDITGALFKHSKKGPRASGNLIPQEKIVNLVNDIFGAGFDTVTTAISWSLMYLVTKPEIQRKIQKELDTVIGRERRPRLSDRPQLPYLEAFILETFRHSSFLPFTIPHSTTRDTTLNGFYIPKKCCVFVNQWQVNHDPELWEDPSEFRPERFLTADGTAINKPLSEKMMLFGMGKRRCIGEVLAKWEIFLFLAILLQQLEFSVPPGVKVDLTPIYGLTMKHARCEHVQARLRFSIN
# [1] = cytotoxicity toward NIH3T3 fibroblasts, dose response, counter-screen, cell-based, ATP luminescence, mouse fibroblasts (AID 2010); assay type: functional;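 also: cells exposed to compound for about 90 hours before reading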
# [2] = inhibitors of intracellular T. cruzi replication, confirmation, NIH3T3 host cells, beta-gal luminescence (AID 2044); assay type: functional, cell-based;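 also: intracellular parasites grown in NIH/3T3 mouse fibroblasts as host cells; luminescent beta-galactosidase reporter signal from transgenic T. cruzi replicating inside host cells; inhibitors lower the luminescence signal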
# [3] = molecular target: T2, Heat shock factor protein 1 (Mus musculus, UniProt P38532); test: inhibition of MG132-induced HSE-luciferase signal, confirmation, cell-based, NIH3T3, luminescence, dose retest (AID 2382); assay type: functional;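 also: NIH3T3 fibroblasts with HSF1-driven luciferase reporter stressed by proteasome inhibitor MG132; luminescence from HSF1-driven luciferase expression after 8 hours of MG132 stress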
# T2 sequence (P38532 whole entry): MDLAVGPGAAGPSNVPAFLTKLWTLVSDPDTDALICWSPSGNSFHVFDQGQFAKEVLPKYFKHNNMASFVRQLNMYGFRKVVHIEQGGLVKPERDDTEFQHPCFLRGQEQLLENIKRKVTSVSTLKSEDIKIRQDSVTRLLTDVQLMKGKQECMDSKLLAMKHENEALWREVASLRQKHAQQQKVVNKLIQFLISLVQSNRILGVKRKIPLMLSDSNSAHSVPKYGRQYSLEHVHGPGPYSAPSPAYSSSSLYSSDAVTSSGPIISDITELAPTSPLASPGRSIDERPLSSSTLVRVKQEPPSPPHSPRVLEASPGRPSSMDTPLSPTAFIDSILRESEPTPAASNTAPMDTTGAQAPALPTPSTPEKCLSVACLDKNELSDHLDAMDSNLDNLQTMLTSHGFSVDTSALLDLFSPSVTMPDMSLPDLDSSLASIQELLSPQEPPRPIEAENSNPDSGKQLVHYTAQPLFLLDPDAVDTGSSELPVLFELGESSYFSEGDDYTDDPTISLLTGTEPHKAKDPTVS
# H4 = test: Luminescence Cell-Based Dose Response HTS to Identify Activators of 5'UTR Stem-Loop Driven Prion Protein mRNA Translation in H4 Neuroglioblastoma Cells. [Related pubchem assays: 1829 (Project Summary), 1814 (Primary HTS)]; assay type: functional; details: Homo sapiens
# [4] = Luminescence Cell-Based Dose Confirmation HTS to Identify Activators of 5'UTR Stem-Loop Driven Alpha-Synuclein mRNA Translation in H4 Neuroglioblastoma Cells. [Related pubchem assays: 1829 (Project Summary), 1814 (Primary HTS)]; assay type: functional
# [5] = Luminescence Cell-Based Dose Response HTS to Identify Activators of Luciferase Translation or Activity in H4 […] Cells. [Related pubchem assays: 1829 (Project Summary), 1814 (Primary HTS)]; assay type: functional
smiles,measurement,setting,value
CC(NC(=O)c1ccccc1)c1nc2ccccc2n1Cc1ccccc1F (stereo unspecified),AC50,Cytochrome P450 1A2,28.2 µM (inconclusive)
Fc1ccc(COc2ccc(Br)cc2CNCc2ccncc2)cc1,EC50,[1],> 30 µM (not active)
same,EC50,[2],0.78 µM (active)
COc1ccc(N2CCN(C(=O)CSc3ncnc4scc(-c5ccc(C)cc5)c34)CC2)cc1,EC50,[1],> 60 µM (not active)
same,EC50,[2],1.03 µM (active)
CC(=O)NCC1=C(NC(C)=O)C2CC1C(C)(C)C2C (stereo unspecified),EC50,[3],> 195 µM (not active)
O=C(CCCNC(=O)/C(=C\c1ccccc1F)NC(=O)c1ccccc1)OCc1ccccc1,EC50,[3],> 195 µM (not active)
COc1ccc(-c2cn3c(C)c(C(=O)NCCN4CCOCC4)sc3n2)cc1,AC50,Cytochrome P450 1A2,0.126 µM (inconclusive)
COc1ccccc1Cn1nnc2c(=O)[nH]c(C3CCN(C(=O)c4ccc(C)cc4)CC3)nc21,AC50,Cytochrome P450 1A2,25.1 µM (inconclusive)
Cc1[nH]c2ccccc2c1C(=O)CSc1nc2cc(S(=O)(=O)N3CCCCC3)ccc2o1,EC50,[1],18.2 µM (active)
same,EC50,[2],2.54 µM (active)
O=C(CCC1CCCNC1)c1ccccc1 (stereo unspecified),EC50,[3],> 195 µM (not active)
O=C(CN1CCN(C2CCCCC2)CC1)NCCC1=CCCCC1,AC50,Cytochrome P450 1A2,20 µM (inconclusive)
CC(C)Cc1nnc(NC(=O)c2cccc(S(=O)(=O)N3CCN(C)CC3)c2)s1,EC50,[1],> 60 µM (not active)
same,EC50,[2],0.1 µM (active)
Fc1ccc(-c2csc(/C=C/c3ccc4c(c3)OCO4)n2)cc1,EC50,H4,46.8 µM (active)
same,EC50,[4],9.2 µM (active)
same,EC50,[5],9.07 µM (active)
CC(C)(C)C1CCc2[nH]c3ccccc3c(=O)c2C1 (stereo unspecified),EC50,[1],> 60 µM (not active)
same,EC50,[2],1.1 µM (active)
CC(C)(C)CC(=O)NCCc1csc(-c2ccccc2)n1,EC50,[1],> 60 µM (not active)
same,EC50,[2],1.1 µM (active)
CCc1cc(/C=N/C2CCCCC2)c(O)s1,EC50,H4,> 120 µM (not active)
same,EC50,[3],> 195 µM (not active)
same,EC50,[4],67.7 µM (active)
same,EC50,[5],> 120 µM (not active)
O=S(=O)(NC(=NC(=S)Nc1ccccc1)c1ccccc1)c1ccc(Cl)cc1,EC50,H4,63.2 µM (active)
same,EC50,[4],41.4 µM (active)
same,EC50,[5],59.7 µM (active)
O=C(/C=C/c1ccc2c(c1)OCO2)Nc1nncs1,EC50,H4,18.6 µM (active)
same,EC50,[5],0.1 µM (active)
CC(C)C(=O)Nc1cccc(-c2nc3ncccc3o2)c1,EC50,[3],> 195 µM (not active)
NC(=O)C1(N2CCCCC2)CCN(C2CC(=O)NC2=O)CC1 (stereo unspecified),EC50,H4,> 120 µM (not active)
same,EC50,[4],> 120 µM (not active)
same,EC50,[5],> 120 µM (not active)
O=C(COc1ccc(Cl)cc1Cl)NC(=O)N1CCCCC1,EC50,H4,92.5 µM (active)
same,EC50,[4],6.03 µM (active)
same,EC50,[5],30.6 µM (active)
CCN(CC)CCN1C(=O)Cn2c(C)c(C)c3cccc1c32,EC50,[1],> 60 µM (not active)
same,EC50,[2],0.206 µM (active)
C[C@@H](C(=O)Nc1ccc2ccccc2c1)[C@@H]1C[C@@]1(C)[C@@H](NS(=O)(=O)c1ccc(-c2ccccc2)cc1)c1ccccc1,AC50,Cytochrome P450 1A2,12.6 µM (inconclusive)
CNC(=S)N/N=C/c1c(Cl)cccc1Cl,EC50,[3],> 195 µM (not active)
COC(=O)c1ccc(OCc2cc(=O)n3ccsc3n2)cc1,EC50,[4],21.2 µM (active)
same,EC50,[5],> 120 µM (not active)
COc1ccc(CCN(Cc2cccs2)S(=O)(=O)c2ccc(S(=O)(=O)N(C)C3CCCCC3)cc2)cc1OC,EC50,[1],> 60 µM (not active)
same,EC50,[2],0.878 µM (active)
Cc1cc(N2CCN(C)CC2)nc2ccc(NC(=O)c3cccnc3Cl)cc12,EC50,[3],> 195 µM (not active)
CCCCN(C)C(=O)CCC(=O)Nc1ccc2nc(N3CCN(C)CC3)cc(C)c2c1,EC50,[3],> 195 µM (not active)
O=C(Nc1ccccc1)[C@@H]1[C@@H]2C(=O)N(c3ccc(F)cc3)C(=O)[C@@H]2[C@H]2C=CC=NN21,EC50,H4,> 120 µM (not active)
same,EC50,[4],> 120 µM (not active)
same,EC50,[5],> 60 µM (not active)
CCOc1ccc(CN2CCN(Cc3cccn3-c3cccnc3)CC2CCO)cc1 (stereo unspecified),EC50,[1],> 60 µM (not active)
same,EC50,[2],1.89 µM (active)
COC(=O)C1=C(N)N(c2ccccc2C(F)(F)F)C2=C(C(=O)CCC2)C1c1ccc2c(c1)OCO2 (stereo unspecified),AC50,Cytochrome P450 1A2,31.6 µM (inconclusive)
same,EC50,[1],> 60 µM (not active)
same,EC50,[2],1.24 µM (active)
O=C(/C=C/c1ccccc1)NCCC1=CCCCC1,EC50,H4,13.1 µM (active)
same,EC50,[4],0.378 µM (active)
same,EC50,[5],2.93 µM (active)
O=C(Nc1ccc([N+](=O)[O-])cc1)C1(c2ccccc2)CCOCC1,EC50,[3],> 195 µM (not active)
Cc1cc(C)c(-c2nc3ccccc3s2)[nH]1,EC50,H4,30.3 µM (active)
same,EC50,[4],0.207 µM (active)
same,EC50,[5],1.61 µM (active)
COCCCNC(=O)Cn1cnc2sc(C)c(S(=O)(=O)N3CCN(c4ccccc4OC)CC3)c2c1=O,EC50,[3],> 195 µM (not active)
c1ccc(CN2CCN(c3cnc4ccccc4n3)CC2)cc1,EC50,H4,10.9 µM (active)
same,EC50,[4],4.79 µM (active)
same,EC50,[5],26.8 µM (active)
O=C(CSc1cccc2cccnc12)N1CCCC1,EC50,[1],8.3 µM (active)
same,EC50,[2],0.299 µM (active)
O=C(c1ccc(Cl)cc1)N1CCCC(c2ccccc2)=N1,AC50,Cytochrome P450 1A2,0.141 µM (inconclusive)
CCOC(=O)CN1CC23C=CC(O2)C(C(=O)NC2CCCCC2)C3C1=O (stereo unspecified),EC50,[3],> 195 µM (not active)
Cc1ccc(C(=O)NCc2ccc(N3CCN(C)CC3)cc2)cc1C,EC50,[3],> 195 µM (not active)
CCOc1ccc(N/C(=C(/C(=O)C(=O)N2CCOCC2)C(=O)c2ccccc2)c2ccccc2)cc1,EC50,H4,57.8 µM (active)
same,EC50,[4],13.3 µM (active)
same,EC50,[5],20.3 µM (active)
O=C(N/N=C\c1ccc2c(c1)OCO2)c1ccc(Cn2cc(Br)c([N+](=O)[O-])n2)o1,EC50,[1],> 60 µM (not active)
same,EC50,[2],0.408 µM (active)
C/C(CC1CC(COCC(C)C)OC1=O)=N\Nc1nc(-c2ccccc2)cs1 (stereo unspecified),EC50,H4,71.2 µM (active)
same,EC50,[4],> 120 µM (not active)
same,EC50,[5],> 120 µM (not active)
Cc1cc(C)[n+]2n1C([O-])=C(c1ccccc1)C2=O,EC50,H4,13.1 µM (active)
same,EC50,[5],29.1 µM (active)
COC(=O)[C@@]1(Cc2ccc(OC)cc2)[C@H]2c3cc(C(=O)N4CCCC4)n(CCc4c[nH]c5cc(F)ccc45)c3C[C@H]2CN1C(=O)c1ccccc1,AC50,Cytochrome P450 1A2,39.8 µM (inconclusive)
Cc1ccccc1NC(=O)N1C2CCCC1CC(NC(=O)C1CC1)C2 (stereo unspecified),EC50,[3],> 195 µM (not active)
COc1ccccc1C(=O)NCC(=O)N/N=C/c1ccc2c(c1)OCO2,EC50,[3],> 195 µM (not active)
COc1ccc(Cc2nnc(NC(=O)c3ccco3)s2)cc1,AC50,Cytochrome P450 1A2,11.2 µM (inconclusive)
O=C(Nc1ccn(Cc2ccccc2)n1)c1ccc2c(c1)OCO2,EC50,H4,> 120 µM (not active)
same,EC50,[4],15.6 µM (active)
same,EC50,[5],18.5 µM (active)
CCCS(=O)(=O)c1nc(S(=O)(=O)c2ccc(C)cc2)c(N2CCN(CCO)CC2)s1,EC50,H4,> 120 µM (not active)
same,EC50,[4],18.7 µM (active)
same,EC50,[5],8.79 µM (active)
O=C(O)C(=O)Nc1ccc(NC(=O)C(c2ccccc2)c2ccccc2)cc1,EC50,[3],> 195 µM (not active)
COc1ccc(-c2ccc(-c3nnn(CC(=O)N4CCOCC4)n3)cc2)cc1,EC50,H4,2.65 µM (active)
same,EC50,[4],4.15 µM (active)
same,EC50,[5],4.67 µM (active)
